Test results published in article PMC3976407, “Inhibition of Fatty Acid Binding Proteins Elevates Brain Anandamide Levels and Produces Analgesia” (PLoS ONE, 2014).

What was measured:
[1] = test system: acetic acid-induced writhing in mice; assay: Acetic acid-induced writhing; format: in vivo, mouse; conditions: for Effect upon acetic acid-induced writhing: 20 mg/kg, subcutaneous, 60 min before acetic acid
Procedure: Mice were acclimated to the laboratory environment for at least two hours and were habituated to the testing chamber for 30 min prior to acetic acid challenge. SBFI26, SBFI50, SBFI60, and SBFI62 (20 mg/kg) were administered via the subcutaneous route 60 min before acetic acid. Rimonabant, SR144528, GW6471, and naloxone were given 10 min before the inhibitors via the subcutaneous route. The mice subsequently received an i.p. injection of acetic acid (0.6% in sterile saline, 10 μl/g) and were placed in observation chambers. Abdominal stretches (marked by extension of the body and hind limbs) were counted for 20 min starting at 5 min post-injection.

FABP3 [2] = molecular target: T1, FABP3 (Homo sapiens, UniProt P05413); design: method as in PMID 22170058; conditions: determined previously ref 9; cited from earlier work
FABP5 [3] = molecular target: T2, FABP5 (Homo sapiens, UniProt Q01469); design: method as in PMID 22170058; conditions: determined previously ref 9; cited from earlier work
FABP7 [4] = molecular target: T3, FABP7 (Homo sapiens, UniProt O15540); design: method as in PMID 22170058; conditions: determined previously ref 9; cited from earlier work
FABP5 [5] = molecular target: T2, FABP5; assay: NBD-stearate fluorescence displacement binding; conditions: averages ± S.E. of three independent experiments
Procedure: Inhibitory constant (Ki) values were elucidated utilizing NBD-stearate fluorescence displacement as described previously, [31]. The tests were performed in 96-well plates containing inhibitors (0.1 – 50.0 μM), FABP, and NBD-stearate. Fluorescence intensity was measured with a FLUOstar OPTIMA spectrofluorometer with excitation and emission wavelengths of 460 and 544 nm, respectively.

[6] = test system: carrageenan-induced thermal hyperalgesia and paw edema in mice; assay: Carrageenan-induced paw edema and thermal hyperalgesia; format: in vivo, mouse; conditions: 20 mg/kg, i.p.
Procedure: Paw edema was induced by injecting 1% λ-carrageenan (20 μl, in sterile saline) into the plantar surface of the left hind paw using a 30 gauge needle attached to a glass syringe (Hamilton Company). Paw diameters were measured before carrageenan injection and 4 or 24 hours after injection using digital electronic calipers (Fisher) and expressed to the nearest ± 0.01 mm. SBFI26, SBFI50, SBFI60, and SBFI62 were dissolved in DMSO:cremophor-EL:saline (4% DMSO:10% Cremophor-EL) and administered (20 mg/kg, i.p.) 60 min prior to injection of carrageenan. Receptor antagonists were injected 10 min before the inhibitors. Rimonabant and SR144528 (3 mg/kg, i.p.) were dissolved in ethanol:cremophor-EL:saline (1∶1∶18) while GW6471 (4 mg/kg, i.p.) was dissolved in DMSO:cremophor-EL:saline (2% DMSO:5% Cremophor-EL). Edema is reported as the change in paw diameter at 24 hr compared to the baseline. Thermal hyperalgesia was measured using the Hargreaves plantar apparatus (Ugo Basile) as previously reported.

[7] = test system: formalin-induced nociception in mice; assay: Formalin test; format: in vivo, mouse; conditions: 20 mg/kg, i.p.; for Effect upon first phase of formalin-induced nociception: first phase 0–5 min
Procedure: Mice were habituated to the observation chamber (Plexiglas box, 25 cm×25 cm×25 cm) for 30 min prior to formalin injection. Mice were administered FABP inhibitors 60 min prior to formalin. The animals subsequently received an injection of formalin (2.5% in saline, 20 μl) into the plantar surface of the right hind paw using a 30 gauge needle and were immediately placed back into the observation chamber and nocifensive behavior (time spent licking or biting the paw) was recorded for 60 min. Nocifensive behavior was scored during the first phase (0–5 min) and the second phase (∼15–45 min) of the formalin test.

FABP3 [8] = molecular target: T1, FABP3; assay: NBD-stearate fluorescence displacement binding
Procedure: (§1) Inhibitory constant (Ki) values were elucidated utilizing NBD-stearate fluorescence displacement as described previously [9], [31]. The tests were performed in 96-well plates containing inhibitors (0.1 – 50.0 μM), FABP, and NBD-stearate. Fluorescence intensity was measured with a FLUOstar OPTIMA spectrofluorometer with excitation and emission wavelengths of 460 and 544 nm, respectively.

FABP7 [9] = molecular target: T3, FABP7; assay: NBD-stearate fluorescence displacement binding
Procedure: as §1

rats subjected to CCI = assay: Rat neuropathic pain model (chronic constriction injury of the sciatic nerve); format: in vivo; conditions: 20 mg/kg i.p.
From the text: Male Fisher 344 rats were habituated and pre-injury evoked responses were obtained. The Hargreaves test was used to assess thermal hyperalgesia. Briefly, plexiglass enclosures were set atop a plexiglass platform and infrared source set at 50% power located under the platform was used as the heat stimulus (Ugo Basile). A 200 mW, 535 nm diode laser was mounted in an adjustable stand placed beneath the plexiglass platform, and was used as an alternative heat stimulus for some of the animals in this study. The latency time to hind paw lift during heating of the plantar surface was recorded. Five recordings were obtained on each hind paw with at least 2 min rest between measurements. The maximum time for exposure to the infrared or diode laser source was 30.5 s to avoid any possible tissue injury. For mechanical threshold measurements, the animal enclosures rested on a screen with mesh of 0.5 cm spacing. Following acclimation, an electronic von Frey Anesthesiometer (IITC Life Sciences) was applied with increasing pressure to the plantar surface of the hind paw until the animals lifted the hind paw. The number of grams of force applied by the probe to induce withdrawal was recorded. Five recordings were obtained on each hind paw with at least 3 min between measurements. For CCI surgeries, our procedure closely followed that reported previously. Briefly, each animal received an i.p. injection of ketamine/xylazine (75 mg/kg and 10 mg/kg, respectively). The hind leg was surgically prepped and the anesthetized animal placed prone on an sterile towel over a heating pad. The temperature was monitored rectally. A skin incision was made mid-thigh with a medium curved scalpel and then scissors were used to expose the sciatic nerve. Approximately 1 cm of the main trunk proximal to the trifuraction was isolated and 4 strands of 4-0 chromic gut were tied around the nerve ∼ 1 mm apart under magnification. In a modification of the original method, a 2-0 prolene strand was placed between the nerve and the gut to which the suture was tightened. The prolene strand was then removed. This prevented over tightening and reduced subsequent motor paralysis. The muscle layers were then reopposed and sutured, and surgical staples were used to close the skin. On post-injury days 7 through 10, heat and mechanical measurements were obained for the ipsilateral hindpaw of each CCI animal. Immediately following the post-injury measurements, animals were randomized and received i.p. injections of vehicle or 20 mg/kg SBI26 (DMSO:cremophor:sterile saline 1∶1∶2 by volume). Up to 0.8 ml of drug or vehicle was injected. The observer was blinded as to administration of drug or vehicle. Thermal and mechanical measurements were performed at 1 and 4 h post-injection. Data were normalized to pre-injury baseline measurements for each animal.

HeLa cells = assay: Cytotoxicity, MTT colorimetric assay; format: cell-based; conditions: 24 hr incubation, n = 3
Procedure: Cytotoxicity of the FABP inhibitors SBFI26 and BMS309403 were examined using the MTT [3-(4,5-dimethylthiazol-2-yl)-2,5 diphenyl tetrazolium bromide] colorimetric assay. HeLa cells were seeded into 96-well plates (15,000 cells/well) and incubated for 24 hours at 37°C in DMEM supplemented with 10% FBS, penicillin (100 U/mL) and streptomycin (100 μg/mL). The cells were subsequently washed with PBS and treated with serum-free DMEM containing 10 nM to 1 mM SBFI26, BMS309403, or 5 mM hydrogen peroxide as a positive control. Following a 24 hr incubation, the cells were washed with PBS and treated with MTT (0.5 mg/mL in PBS) for 4 hrs. The cells were subsequently solubilized using DMSO and the absorbance was read at 562 nm in a microplate reader.

T2 sequence (Q01469 whole entry, species assumed): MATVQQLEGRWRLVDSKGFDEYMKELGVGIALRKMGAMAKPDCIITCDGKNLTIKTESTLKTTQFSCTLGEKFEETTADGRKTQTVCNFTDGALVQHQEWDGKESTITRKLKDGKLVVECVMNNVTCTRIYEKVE
T1 sequence (P05413 whole entry, species assumed): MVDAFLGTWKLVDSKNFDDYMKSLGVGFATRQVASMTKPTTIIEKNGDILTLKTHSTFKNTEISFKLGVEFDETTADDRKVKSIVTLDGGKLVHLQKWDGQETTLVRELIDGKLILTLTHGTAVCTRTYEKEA
T3 sequence (O15540 whole entry, species assumed): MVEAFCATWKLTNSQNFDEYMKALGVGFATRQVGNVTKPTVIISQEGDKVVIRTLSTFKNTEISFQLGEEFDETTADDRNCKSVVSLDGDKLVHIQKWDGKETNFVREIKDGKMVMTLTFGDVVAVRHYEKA

Ki (FABP5 [5])	Ki (FABP3 [8])	Ki (FABP7 [9])	SMILES	Effect upon carrageenan-induced paw edema [6]	Effect upon carrageenan-induced thermal hyperalgesia [6]	Effect upon first phase of formalin-induced nociception [7]	Effect upon acetic acid-induced writhing [1]	further results
			O=C(Nc1cccnc1)N1CCC(Cc2cccc(Oc3ccc(C(F)(F)F)cn3)c2)CC1 [PF-3845, reference compound]					Antinociceptive effects in the acetic acid test after pretreatment with CB1 antagonist rimonabant ([1]; rimonabant 3 mg/kg 10 min before inhibitor): blocked
			CCCCCCC(CCCCCCCCCCC(=O)O)N(C)c1ccc([N+](=O)[O-])c2nonc12 (centres unmarked) [NBD-stearate, 12-N-methyl-(7-nitrobenz-2-oxa-1,3-diazo)aminostearicacid]					Kd (FABP3 [2]): 0.18 µM; Kd (FABP5 [3]): 0.16 µM; Kd (FABP7 [4]): 0.22 µM
3.3 ± 0.7 µM	2.6 ± 1.1 µM	6.1 ± 0.5 µM	O=C(Nc1cccc2ccccc12)C1C(c2ccccc2)C(C(=O)Nc2cccc3ccccc23)C1c1ccccc1 (centres unmarked) [SBFI62, 2,4-diphenylcyclobutane-1,3-dicarboxylic acid di-1-naphthyl amide]	without effect	without effect	without effect	without effect	Effect upon second phase of formalin-induced nociception ([7]; second phase ∼15–45 min): without effect
1.6 µM	> 10 µM	0.3 µM	O=C(O)C1C(c2ccccc2)C(C(=O)Nc2cccc3ccccc23)C1c1ccccc1 (stereo not drawn) [SBFI60, alpha-2,4-diphenylcyclobutane-1,3-dicarboxylic acid mono-1-naphthyl amide]	without effect	without effect	reduced	without effect	
1.3 ± 0.2 µM	3.5 ± 0.3 µM	0.6 ± 0.1 µM	O=C(O)C1C(c2ccccc2)C(C(=O)Oc2ccc3ccccc3c2)C1c1ccccc1 (stereo not drawn) [SBFI50, alpha-2,4-diphenylcyclobutane-1,3-dicarboxylic acid mono-2-naphthyl ester]	reduced	reduced	reduced	without effect	Effect on mechanical thresholds in CCI rats (rats subjected to CCI; 1 and 4 h): Neither compound altered; Effect on thermal hyperalgesia in CCI rats (rats subjected to CCI; measured 1 and 4 h post-injection): without effect
			CCc1c(-c2ccccc2)c(-c2ccccc2)nn1-c1ccccc1-c1cccc(OCC(=O)O)c1 [BMS309403, reference compound]					Cytotoxicity _50 values (HeLa cells): 11.3 ± 0.9 µM
